Source: US20120035247A1, “RNA Interference Mediated Inhibition of Signal Transducer and Activator of Transcription 6 (STAT6) Gene Expression Using Short Interfering Nucleic Acid (siNA)” (Merck Sharp & Dohme Corp., priority 2009, published 2012)
[invAb] = inverted abasic unit; d = 2'-deoxy (DNA); m = 2'-O-methyl; r = 2'-OH (RNA); f = 2'-fluoro

Tests used:
STAT6 mRNA [1] = assay: STAT6 siNA screen in mouse NIH 3T3 cells, STAT6 mRNA by quantitative RT-PCR (Taqman); format: cell-based; settings: mouse NIH3T3 cells, 10 nM siNA, 24 hrs, normalized to GAPDH and non-targeting control, n = 2
Description: NIH 3T3 (mouse; ATCC cat# CRL-1658): Cells were cultured at 37° C. in the presence of 5% CO2 and grown in Dulbecco's modified Eagle's medium (DMEM) with 4 mM L-glutamine adjusted to contain 1.5 g/L sodium bicarbonate and 4.5 g/L glucose and supplemented with fetal bovine serum at a final concentration of 10%, 100 μg/mL of streptomycin, and 100 U/mL penicillin.
(§1) Cells were plated in all wells of a tissue-culture treated, 96-well plate at a final count of 5000 cells/well in […], of the appropriate culture media. The cells were cultured for 24 hours after plating at 37° C. in the presence of 5% CO2.
(§2) After 24 hours, complexes containing siNA and RNAiMax were created as follows: A solution of RNAiMax diluted 33-fold in OPTI-MEM was prepared. In parallel, solutions of the siNAs for testing were prepared to a final concentration of 120 nM in OPTI-MEM. After incubation of RNAiMax/OPTI-MEM solution at room temperature for 5 min, an equal volume of the siNA solution and the RNAiMax solution were added together for each of the siNAs.
(§3) This solution was incubated at room temperature for 20 minutes. After incubation, 20 uL of the solution was added to each of the relevant wells. The final concentration of siNA in each well was 10 nM and the final volume of RNAiMax in each well was 0.3u1.
(§4) The time of incubation with the RNAiMax-siNA complexes was 24 hours and there was no change in media between transfection and harvesting, unless otherwise indicated.
(§5) RNA was extracted from a 96-well plate using the TaqMan® Gene Expression Cells-to-CT™ Kit (Cat#4399002) with a modified protocol. Briefly, a 60 uL (1 plate) or 110 uL (2 plates) of the Lysis Solution with DNase I was dispensed into each well of the Lysis Buffer Plate (twin.tec full skirt plate). The lysis buffer and stop plates were stored at 4° C. until the cells were washed.
(§6) The plate was spun at 1100 rpm for 5 minutes. The culture medium was aspirated and discarded from the wells of the culture plate. The lysis was performed automatically using a BioMek FX instrument and method. After the Biomek method was completed, the lysis plate was incubated for 2 min. at room temperature. The lysis plate can be stored for 2 hours at 4° C., or at −20° C. or −80° C. for two months.
(§7) Each well of the reverse transcription plate required 10 uL of 2× reverse transcriptase Buffer, luL of 20× reverse transcription enzyme and 2 uL of nuclease-free water. The reverse transcription master mix was prepared by mixing 2× reverse transcription buffer, 20× reverse transcription enzyme mix, and nuclease-free water. 13 uL of the reverse transcription master mix was dispensed into each well of the reverse transcription plate (semi-skirted). A separate reverse transcription plate was prepared for each cell plate. The plate was loaded onto a Biomek NX or Biomek FX Dual-96 and the Biomek method was run. The program is programmed to automatically added 7 uL of lysate from the cell lysis procedure described above into each well of the reverse transcription plate. The plate is sealed and spun on a centrifuge (1000 rpm for 30 seconds) to settle the contents to the bottom of the reverse transcription plate. The plate is placed in a thermocycler at 37° C. for 60 min, 95° C. for 5 min, and 4° C. until the plate is removed from the thermocycler. Upon removal, if not used immediately, the plate was frozen at −20° C.
(§8) A series of probes and primers were used to detect the various mRNA transcripts of the genes of 13-Actin (human cell line only), and of STATE and GAPDH in mouse and human cell lines. All Taqman probes and primers for the experiments here-in described were supplied as pre-validated sets by Applied Biosystems, Inc. (see Table 2).
The assays were performed on an ABI 7900 instrument, according to the manufacturer's instructions. A TaqMan Gene Expression Master Mix (provided in the Cells-to-CTT™, Applied Biosystems, Cat #4399002) was used. […]

STAT6 mRNA [2] = assay: STAT6 siNA screen and dose response in human A549 cells, STAT6 mRNA by quantitative RT-PCR (Taqman); format: cell-based; settings: human A549 cells, 10 nM siNA, 24 hrs, normalized to GAPDH and non-targeting control, mean ± S.D., n = 3
Description: A549 (human; ATCC cat# CCL-185): Cells were cultured at 37° C. in the presence of 5% CO2 and grown in Ham's F12K medium with 2 mM L-glutamine adjusted to contain 1.5 g/L sodium bicarbonate and supplemented with fetal bovine serum at a final concentration of 10%, 100 μg/mL of streptomycin, and 100 U/mL penicillin.
as §1, §2, §3, §4, §5, §6, §7, §8
The assays were performed on an ABI 7900 instrument, according to the manufacturer's instructions. A TaqMan Gene Expression Master Mix (provided in the Cells-to-CTT™, Applied Biosystems, Cat #4399002) was used. The PCR reactions were carried out at 50° C. for 2 min, 95° C. for 20 min followed by 40 cycles at 95° C. for 15 secs and 60° C. for 1 min. […]

Substance | % KD STAT6 (STAT6 mRNA [1]) [%] | % KD STAT6 (STAT6 mRNA [2]) [%]
30002-DC: STAT6 siNA duplex; sense SEQ ID NO: 68, antisense SEQ ID NO: 69; target GAUAGAAACUCCUGCUAAU, site 766 (sense GAUAGAAACUCCUGCUAAUTT; antisense AUUAGCAGGAGUUUCUAUCUU; sense: DNA at AGT, 2'-fluoro at CU, [invAb] at 5' end, 3' end, backbone not given here; antisense: sugars from the 5' end rrrmmfmmmmmfffffmffmm, backbone not given here) [STAT6 siNA duplex; target GAUAGAAACUCCUGCUAAU, site 766] | −22.3 ± 3.5 | 55.9 ± 9.4
30003-DC: STAT6 siNA duplex; sense SEQ ID NO: 70, antisense SEQ ID NO: 71; target CGUGGAAAGGGACCAACCA, site 2218 (sense CGUGGAAAGGGACCAACCATT; antisense UGGUUGGUCCCUUUCCACGUU; sense: DNA at AGT, 2'-fluoro at CU, [invAb] at 5' end, 3' end, backbone not given here; antisense: sugars from the 5' end rrrffmmfffffffffmfmmm, backbone not given here) [STAT6 siNA duplex; target CGU…, site 2218] | −22.6 ± 6.6 | −11.1 ± 23.2
30004-DC: STAT6 siNA duplex; sense SEQ ID NO: 72, antisense SEQ ID NO: 73; target GCCUUCUUAUGACCUUGGA, site 2272 (sense GCCUUCUUAUGACCUUGGATT; antisense UCCAAGGUCAUAAGAAGGCUU; sense: DNA at AGT, 2'-fluoro at CU, [invAb] at 5' end, 3' end, backbone not given here; antisense: sugars from the 5' end rrrmmmmffmfmmmmmmmfmm, backbone not given here) [STAT6 siNA duplex; target GCCUUCUUAUGACCUUGGA, site 2272] | −12.8 ± 9.1 | 3.1 ± 19.6
30006-DC: STAT6 siNA duplex; sense SEQ ID NO: 76, antisense SEQ ID NO: 77; target CCACUAUCCUGUGGGACAA, site 1542 (sense CCACUAUCCUGUGGGACAATT; antisense UUGUCCCACAGGAUAGUGGUU; sense: DNA at AGT, 2'-fluoro at CU, [invAb] at 5' end, 3' end, backbone not given here; antisense: sugars from the 5' end rrrffffmfmmmmfmmfmmmm, backbone not given here) [STAT6 siNA duplex; target CCACUAUCCUGUGGGACAA, site 1542] | −27.4 ± 8.5 | 72.9 ± 1.7
30007-DC: STAT6 siNA duplex; sense SEQ ID NO: 78, antisense SEQ ID NO: 79; target GGAAGUUCAGGCUCUGAGA, site 3048 (sense GGAAGUUCAGGCUCUGAGATT; antisense UCUCAGAGCCUGAACUUCCUU; sense: sugars from the 5' end d5 f3 d3 f4 d6, [invAb] at 5' end, 3' end, backbone not given here; antisense: sugars from the 5' end rrrfmmmmfffmmmfffffmm, backbone not given here) [STAT6 siNA duplex; target GGAAGUUCAGGCUCUGAGA, site 3048] | 8.1 ± 0.8 | 59.8 ± 8.6
30009-DC: STAT6 siNA duplex; sense SEQ ID NO: 82, antisense SEQ ID NO: 83; target GCUUUGCUCAGAUGUGACU, site 2538 (sense GCUUUGCUCAGAUGUGACUTT; antisense AGUCACAUCUGAGCAAAGCUU; sense: DNA at AGT, 2'-fluoro at CU, [invAb] at 5' end, 3' end, backbone not given here; antisense: sugars from the 5' end rrrfmfmfffmmmfmmmmfmm, backbone not given here) [STAT6 siNA duplex; target GCUUUGCUCAGAUGUGACU, site 2538] | 72.7 ± 5.4 | 63.5 ± 4.6
30010-DC: STAT6 siNA duplex; sense SEQ ID NO: 84, antisense SEQ ID NO: 85; target GGGACAAUGCCUUCUCUGA, site 1568 (sense GGGACAAUGCCUUCUCUGATT; antisense UCAGAGAAGGCAUUGUCCCUU; sense: sugars from the 5' end dddrfddfdffffffffdddd, [invAb] at 5' end, 3' end, backbone not given here; antisense: sugars from the 5' end rrrmmmmmmmfmffmffffmm, backbone not given here) [STAT6 siNA duplex; target GGGACAAUGCCUUCUCUGA, site 1568] | −26.2 ± 0.2 | 6 ± 23.6
30011-DC: STAT6 siNA duplex; sense SEQ ID NO: 86, antisense SEQ ID NO: 87; target CCGAGAAUCUCUGCAGCAA, site 726 (sense CCGAGAAUCUCUGCAGCAATT; antisense UUGCUGCAGAGAUUCUCGGUU; sense: DNA at AGT, 2'-fluoro at CU, [invAb] at 5' end, 3' end, backbone not given here; antisense: sugars from the 5' end rrrffmfmmmmmfffffmmmm, backbone not given here) [STAT6 siNA duplex; target CCGAGAAUCUCUGCAGCAA, site 726] | 53.4 ± 0.2 | 34.9 ± 11.5
30012-DC: STAT6 siNA duplex; sense SEQ ID NO: 88, antisense SEQ ID NO: 89; target CAUCGUGCAUGGUAACCAA, site 1521 (sense CAUCGUGCAUGGUAACCAATT; antisense UUGGUUACCAUGCACGAUGUU; sense: DNA at AGT, 2'-fluoro at CU, [invAb] at 5' end, 3' end, backbone not given here; antisense: sugars from the 5' end rrrmffmffmfmfmfmmfmmm, backbone not given here) [STAT6 siNA duplex; target CAUCGUGCAUGGUAACCAA, site 1521] | 18 ± 3.2 | −13.7 ± 15.8
30013-DC: STAT6 siNA duplex; sense SEQ ID NO: 90, antisense SEQ ID NO: 91; target CAUGGUGCCACCUUAUGAU, site 2280 (sense CAUGGUGCCACCUUAUGAUTT; antisense AUCAUAAGGUGGCACCAUGUU; sense: DNA at AGT, 2'-fluoro at CU, [invAb] at 5' end, 3' end, backbone not given here; antisense: sugars from the 5' end rrrmfmmmmfmmfmffmfmmm, backbone not given here) [STAT6 siNA duplex; target CAUGGUGCCACCUUAUGAU, site 2280] | 46.1 ± 2.2 | 19.6 ± 13.6
